Measurements: PMC12824250 (Nature Communications, 2025)

How the values were obtained:
VACV [1] = details: cited from earlier work
VACV [2] = details: in vivo; cited from earlier work
rdMPXV^Δ96,158 [3] = assay: microbe, parasite or virus in culture; format: cell-based; details: Monkeypox virus, 30 h
rdMPXV^Δ96,158 [4] = format: cell-based

SMILES	cytopathic effect (CPE) inhibition (VACV [1])	protection from VACV infection (VACV [2])	EC50 (rdMPXV^Δ96,158 [3])	Gaussia luciferase activity (rdMPXV^Δ96,158 [4])	mean fluorescence intensity of mGreen-positive cells (rdMPXV^Δ96,158 [4])
Cc1cc(C(=O)NNC(=O)c2ccncc2)ccc1Cl [IMCBH, N1-isonicotinoly-N2-3-methyl-4-chlorobenzoylhydrazine]	complete cytopathic effect (CPE) inhibition	failed to protect	–	–	–
Nc1ccn(C[C@@H](CO)OCP(=O)(O)O)c(=O)n1 [Cidofovir]	–	–	10.5 µM	reduced Gaussia luciferase activity	showed decreased intensity
